Laboratory results as given in patent publication US20070203134A1, “Benzimidazole Acetonitriles” (APPLIED RESEARCH SYSTEMS ARS HOLDING N.V., priority 2004, published 2007).

Key:
human GSK3 beta = human GSK3 beta (Homo sapiens, UniProt P49841); assay: GSK3β in vitro kinase assay (33P-ATP phosphorylation of phospho GS2 peptide); assay type: biochemical; conditions: in vitro potency, read-out: IC50 (μM) GSK3beta
Protocol: GSK3β Assay (see Bioorg. Med. Chem. Lett by Naerum et al. 12 p. 1525-1528 (2002))
In a final reaction volume of 25 μl, GSK3β (h) (5-10 mU) is incubated with 8 mM MOPS pH 7.0, 0.2 mM EDTA, 20 μM […](p)EDEEE (being the GSK3 substrate; a phospho GS2 peptide), 10 mM Mg Acetate and [γ-^33P-ATP] (Specific activity approx. 500 cpm/pmol, concentration as required). The reaction is initiated by the addition of Mg^2+ [γ-^33P-ATP]. After incubation for 40 minutes at room temperature, the reaction is stopped by the addition of 5 μl of a 3% phosphoric acid solution. 10 μl of the reaction is then spotted onto a P30 filtermat and washed three times for 5 minutes in 50 mM phosphoric acid and once in methanol prior to drying and the degree of phosphorylation of the substrate is determined by scintillation counting.

db/db mice = assay: Experimental model of type II diabetes (oral postprandial glycemia in db/db mice); assay type: in vivo; conditions: 50 mg/kg per os, 4 hrs after drug administration, compared to vehicle treated Group 1
Protocol: b) In Vivo Assay: Experimental Model of Type II Diabetes (oral Postprandial Glycemia in db/db Mice)
The following assay aims at determining the anti-diabetic effect of the test compounds of formula (I) in a model of postprandial glycemia in db/db mice, in vivo.
The assay was performed as follows:
A total of 24 db/db mice (about 8-9 weeks; obtained from IFFACREDO, l'Arbreste, France) were fasted during 20 hours.
2 groups, each consisting of 6 animals were formed: • Group 1: The animals were administered (per os) a dose of 10 mg/kg of vehicle. • Group 2: The animals were administered per os) a dose of 50 mg/kg of the test compound according to formula (D.
After oral administration of the compounds of formula (I) solubilized or suspended in CarboxyMethylCellulose (0.5%), Tween 20 (0.25%) and water as vehicle, the animals had access to commercial food (D04, UAR, Villemoisson/Orge, France) ad libitum. The diabetic state of the mice was verified by determining the blood glucose level before drug administration. Blood glucose and serum insulin levels were then determined 4 hrs after drug administration.
The determination of the blood glucose level was performed using a glucometer (Precision Q.I.D., Medisense, Abbot, ref. 212.62.31). […]
Changes in blood glucose and serum insulin of drug treated mice were expressed as a percentage of control (group 1: vehicle treated mice).

Chain of human GSK3 beta (P49841 whole entry): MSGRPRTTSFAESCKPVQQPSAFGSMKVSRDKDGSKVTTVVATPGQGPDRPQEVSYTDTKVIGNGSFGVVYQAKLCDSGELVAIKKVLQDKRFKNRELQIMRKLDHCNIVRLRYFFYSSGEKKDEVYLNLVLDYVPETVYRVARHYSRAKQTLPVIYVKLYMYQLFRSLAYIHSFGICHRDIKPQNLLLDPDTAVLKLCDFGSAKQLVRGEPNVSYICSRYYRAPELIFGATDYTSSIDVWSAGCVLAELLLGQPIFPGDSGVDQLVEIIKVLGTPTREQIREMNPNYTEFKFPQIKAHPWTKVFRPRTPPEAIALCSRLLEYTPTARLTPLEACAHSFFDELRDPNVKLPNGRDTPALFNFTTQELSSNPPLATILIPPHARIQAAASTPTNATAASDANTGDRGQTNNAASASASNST

CCN1/C(=C(\C#N)c2nc(NC3CCCCCC3)ncc2C)Nc2ccccc21 [Example 12, (2Z)-[2-(cycloheptylamino)-5-methylpyrimidin-4-yl](1-ethyl-1,3-dihydro-2H-benzimidazol-2-ylidene)acetonitrile]
IC50 (human GSK3 beta): < 10 µM

Cc1cnc(NC2CCCC2)nc1C(C#N)=C1Nc2ccccc2N1 [Example 28, [2-(cyclopentylamino)-5-methylpyrimidin-4yl](1,3-dihydro-2H-benzimidazol-2-ylidene)acetonitrile]
IC50 (human GSK3 beta): < 10 µM

CCN1/C(=C(\C#N)c2nc(NC(=O)C3CN(C(=O)OC(C)(C)C)CCO3)ncc2C)Nc2ccccc21 (stereo not drawn) [Example 84, tert-butyl 2-[({4-[(Z)-cyano(1-ethyl-1,3-dihydro-2H-benzimidazol-2-ylidene)methyl]-5-methylpyrimidin-2-yl}amino)carbonyl]morpholine-4-carboxylate]
IC50 (human GSK3 beta): < 10 µM

CCN1/C(=C(\C#N)c2nc(NC3CCC3)ncc2C)Nc2ccccc21 [Example 3]
blood glucose level reduced (db/db mice): about 28%
insulin level reduced (db/db mice; serum insulin): about 58%

CCN1/C(=C(\C#N)c2nc(NC(=O)Cc3ccccc3OC)ncc2C)Nc2ccccc21 [Example 79, N-{4-[(Z)-cyano(1-ethyl-1,3-dihydro-2H-benzimidazol-2-ylidene)methyl]-5-methylpyrimidin-2-yl}-2-(2-methoxyphenyl)acetamide]
IC50 (human GSK3 beta): < 10 µM

CCN1/C(=C(\C#N)c2cc(NCCc3cccnc3)ncn2)Nc2ccccc21 [Example 46]
IC50 (human GSK3 beta): < 10 µM

CCN1/C(=C(\C#N)c2nc(NC(=O)CCCNC(=O)OC(C)(C)C)ncc2C)Nc2ccccc21 [Example 73, tert-butyl[4-({4-[(Z)-cyano(1-ethyl-1,3-dihydro-2H-benzimidazol-2-ylidene)methyl]-5-methylpyrimidin-2-yl}amino)-4oxobutyl]carbamate]
IC50 (human GSK3 beta): < 10 µM

N#C/C(=C1/Nc2ccccc2N1C1CCC1)c1ccnc(NCCCN2CCCC2=O)n1 [Example 15, (2Z)-(1-cyclobutyl-1,3-dihydro-2H-benzimidazol-2-ylidene)(2-{[3-(2-oxopyrrolidin-1-yl)propyl]amino}pyrimidin-4-yl)acetonitrile]
IC50 (human GSK3 beta): < 10 µM
